The values below come from patent US8716247B2, “Peptides effective in the treatment of tumors and other conditions requiring the removal or destruction of cells” (Nymox Corporation, priority 2006, dated 2014).

For the assay, the system named is prostate. Description: Intraprostatic infusion of S05A Peptides in rats: histological changes of cell death and prostate volume. The format is in vivo, Male Sprague-Dawley rats. Also noted: key to Histological Changes of Cell Death at 24 Hours / Histological Changes of Cell Death at 72 Hours: −: Absent; +: Present, Minimal; ++: Present, Moderate; +++: Present, Moderate and Diffuse; ++++: Present, Diffuse and Extensive. The conditions noted are these: for histological findings in prostate of treated rats: rat prostate after intraprostatic infusion, 1.0 mg/kg; for Calculated Mean Volume 24 Hours / Calculated Mean Volume 72 Hours / Calculated Mean Volume 7 Days: rat prostate volume from mean cross-sectional diameters, V=4/3π(D/2)^3; for Calculated Mean Volume 24 Hours / Calculated Mean Volume 72 Hours / Calculated Mean Volume 7 Days / Calculated Mean Volume Overall: 1.0 mg/kg intraprostatic; for Calculated Mean Volume Overall: rat prostate volume, overall across 24 hours, 72 hours and 7 days; for Histological Changes of Cell Death at 24 Hours / Histological Changes of Cell Death at 72 Hours: rat prostate, intraprostatic infusion 300 μl of 1 mg/mL in PBS pH 7.4 (1.0 mg/kg), H & E sections. The protocol: The purpose of this example was to determine the effect of S05A Peptides on tissue at sites of injection.
Male Sprague-Dawley rats (300 gram weight range) were anesthetized with ether and given one of the above S05A Peptides by intraprostatic infusion, a control injection of normal saline or no injection after open surgical visualization of the prostate. The injections consisted of 300 μl of the S05A Peptide 1 mg/mL in PBS pH 7.4. (1.0 mg/kg) (n=36). Rats were painlessly sacrificed after 24 hours (n=12), 72 hours (n=12) and 7 days (n=12). Prostate glands were dissected, fixed in 10% buffered formalin for 24 hours, embedded in paraffin, sectioned, and stained with H & E. For each animal the entire prostate gland was embedded and sectioned. All stained sections were examined histologically and measured. For each prostate at least […] histological sections were examined, and for each histological section two cross-sectional diameters (D) at 90° from each other were measured (total of ≧8 measurements per prostate). The mean of the cross-sectional diameters (D) for each group was used to estimate volume according to V=4/3π(D/2)^3 and the mean volume calculated for each group. Histological changes were assessed on the following scale:
+++ Present, Moderate and Diffuse
++++ Present, Diffuse and Extensive

Where no end group is shown, it is not given here.

With IDQQVLSRI [S05A-2], the “histological findings in prostate of treated rats” value is “extensive cell death, necrosis, loss of glandular epithelium and atrophy”; the “Calculated Mean Volume 24 Hours” value is 180 mm^3; the “Calculated Mean Volume 72 Hours” value was 249 mm^3; the “Calculated Mean Volume 7 Days” value was 165 mm^3. Moreover, the “Calculated Mean Volume Overall” value is on record as 198 mm^3, the “Histological Changes of Cell Death at 24 Hours” value was “++++” and the “Histological Changes of Cell Death at 72 Hours” value was “++++”.
Consider IDQQVLSRIKLEI [S05A-7], for which the “histological findings in prostate of treated rats” value is “extensive cell death, necrosis, loss of glandular epithelium and atrophy”; the “Calculated Mean Volume 24 Hours” value is recorded as 180 mm^3; the “Calculated Mean Volume 72 Hours” value is given as 165 mm^3; the “Calculated Mean Volume 7 Days” value is 357 mm^3. The “Calculated Mean Volume Overall” value is recorded as 234 mm^3, the “Histological Changes of Cell Death at 24 Hours” value is reported as “++++” and the “Histological Changes of Cell Death at 72 Hours” value was “++++”.
In the case of KLEIKRCL [S05A-3], the “Calculated Mean Volume 24 Hours” value is given as 249 mm^3, the “Calculated Mean Volume 72 Hours” value is on record as 435 mm^3, the “Calculated Mean Volume 7 Days” value is 463 mm^3 and the “Calculated Mean Volume Overall” value is listed as 382 mm^3. In addition, the “Histological Changes of Cell Death at 24 Hours” value is listed as “+” and the “Histological Changes of Cell Death at 72 Hours” value was “+”.
On to RIKLEIK [S05A-5], for which the “Calculated Mean Volume 24 Hours” value is 249 mm^3, the “Calculated Mean Volume 72 Hours” value is recorded as 408 mm^3, the “Calculated Mean Volume 7 Days” value is on record as 392 mm^3 and the “Calculated Mean Volume Overall” value is 350 mm^3. Further, the “Histological Changes of Cell Death at 24 Hours” value is given as “+” and the “Histological Changes of Cell Death at 72 Hours” value is listed as “+”.
On to VLSRIK [S05A-4], for which the “Calculated Mean Volume 24 Hours” value is 357 mm^3, the “Calculated Mean Volume 72 Hours” value was 408 mm^3, the “Calculated Mean Volume 7 Days” value is given as 333 mm^3 and the “Calculated Mean Volume Overall” value was 366 mm^3. The “Histological Changes of Cell Death at 24 Hours” value was “+” and the “Histological Changes of Cell Death at 72 Hours” value is given as “+”.
Regarding VLSRIKLEIKRCL [S05A-6], the “Calculated Mean Volume 24 Hours” value is 310 mm^3, the “Calculated Mean Volume 72 Hours” value was 493 mm^3, the “Calculated Mean Volume 7 Days” value was 408 mm^3 and the “Calculated Mean Volume Overall” value was 404 mm^3. Besides, the “Histological Changes of Cell Death at 24 Hours” value is “+” and the “Histological Changes of Cell Death at 72 Hours” value is “+”.
